What is called Solubility is the concentration that dissolves in the medium under given conditions. A high value points to a readily soluble substance.

The results in this text go back to US20220177511A1, “SERIES OF HALOGENATED TETRACYCLIC TRITERPENE DERIVATIVES AND THEIR PREPARATION AND APPLICATION” (SHANGHAI KING-X BIOTECH CO., LTD, priority 2019, published 2022).

Data set [1] is described as follows: Solubility test in water and FaSSIF. The class given is physicochemical. The following applies: 37° C., up to 24 hours.
Data set [2] can be described thus: Metabolic stability in human liver microsomes. The class given is in vitro ADME. The following applies: for Metabolic half-life of human liver microsomes: 5 μM compound, 1 mg/mL microsomes, 37° C. The protocol:
Preparation of the test sample: Compound 1 (prepared in Example 5), 2 (prepared in Example 4), and 5 (cycloastragenol, purchased from Chengdu Jintaihe Company) were dissolved with an appropriate amount of DMSO to obtain a concentration of 10 mM solution.
1) The compound was diluted with DMSO to 0.5 mM, and diluted to 1/20 with PBS before the experiment.
2) Human liver microsomes and potassium phosphate buffer were added to the EP tube respectively and mixed by gentle shaking.
3) Pre-incubate the EP tube in a metal bath at 37° C. for 5 minutes. 4) Compound 1, 2 or 5 were added and incubated at 37° C.
5) Take 100 μl of sample from the tube at 0, 60, 120, 240, and 360 minutes respectively, and add the sample to the stop tube (containing 100 μl of cooled acetonitrile solution). The mixture was shaken vigorously to terminate the reaction and then placed it in a −30° C. refrigerator until analysis.
6) Centrifuge at 14300 r/min and 4° C. for 10 minutes, aspirate the supernatant and place it in a −30° C. refrigerator until analysis.
Column: Shim-pack XR-ODS II, 2.0×75 mm; mobile phase: mobile phase B: aqueous solution containing 0.2% formic acid; mobile phase A: acetonitrile solution; mobile phase ratio: […]
For orientation: Liver microsomes are a subcellular fraction often used to study metabolism.

In the next data set the test system is C57 mouse CHF model. Description: In vivo efficacy on chronic heart failure in mice (coronary artery ligation, echocardiography), enalapril control. Particulars: positive control 2 mg/kg, p<0.0001 (FIG. 6). The protocol:
C57 mouse coronary artery ligation method was used in this experiment to prepare the mouse CHF model. The differences in echocardiography, hemodynamics and histopathology of the model were observed after administration. Test substance: compound 2. Solvent: 0.3% sodium carboxymethyl cellulose. Dosage: 1 mg/kg, 3 mg/kg, 10 mg/kg, 30 mg/kg and 100 mg/kg. Route of administration: intragastric. Control drug: enalapril 2 mg/kg. Strain: C57 mouse; Age: 7 weeks; Weight: 18-20 g; Gender: Male; Grade: SPF C57 mouse CHF model was established by coronary artery ligation method in this experiment. The differences in echocardiography, hemodynamics and histopathology of the model were observed after administration. 5 dose groups were set for compound 2 in this experiment. Enalapril was selected as the positive control. Once daily for 28 consecutive days. The doses for each group was 1 mg/kg, 3 mg/kg, 10 mg/kg, 30 mg/kg and 100 mg/kg. Positive control group: Enalapril (2 mg/kg) was administered after CHF was established. The mice were anesthetized in a box filled with isoflurane. After the mice were anesthetized, the left 4th intercostal space was opened to expose the left atrial appendage and left ventricle. It can be seen that the left coronary artery runs downward from the middle of the left atrial appendage to the anterior wall of the left ventricle. The coronary artery is sutured at a high position about 1 mm from the lower border of the left atrial appendage. After ligation, the myocardium gradually changes from fleshy red to pale white, indicating myocardial infarction. The model is successfully established, and the chest is closed layer by layer. After the spontaneous breathing of the mice recovered, the mice were caged and reared in a day-night cycle with free access to water and food. After being reared for 30 days, the chronic heart failure model was detected by echocardiography, and the mice with successful chronic heart failure model were selected. Qualified CHF mice screened by echocardiography were randomly grouped. Mice were given compound 2 by intragastric administration once daily for 28 consecutive days. The body weight of mice was measured every week, and echocardiography was performed after 28 days of administration. After the […] anesthetized, 1 mm^3 tissue was taken from the hearts of 3 mice in each group, fixed with electron microscope fixative, and detected by transmission electron microscope to observe the ultrastructure of the heart. All remaining heart tissues were fixed with 10% formaldehyde, and stained with HE for histopathology to observe histopathological changes.

A short description of data set [3]: Metabolic stability in rat liver microsomes. Particulars: compared with compound 5 (cycloastragenol). The class given is in vitro ADME.

Converted amounts (≈) assume the structure as drawn. “Also recorded” adds a separate entry of the source.

With `CC(C)(O)[C@@H]1CC[C@](C)([C@H]2[C@@H](O)C[C@@]3(C)[C@@H]4C[C@H](O)[C@H]5C(C)(C)[C@@H](O)CC[C@@]56C[C@@]46CC[C@]23C)O1` [Compound 5, (2aR,3R,4S,5aS,5bS,7S,7aR,9S,11aR,12aS)-3-((2S,5S)-5-(2-hydroxypropan-2-yl)-2-methyltetrahydrofuran-2-yl)-2a,5a,8,8-tetramethyltetradecahydro-1H,12H-cyclopenta[a]cyclopropa[e]phenanthrene-4,7,9-triol, reference compound], the values for the Solubility in data set [1] (FaSSIF (pH 6.5)) and in data set [1] (Water) were 49 µg/mL (≈ 99.9 µM) and 8 µg/mL (≈ 16.3 µM), respectively. Also, in data set [2], the “Metabolic half-life of human liver microsomes” value is 0.308 h.
Turning to `CCOC(=O)[C@H](CCc1ccccc1)N[C@@H](C)C(=O)N1CCC[C@H]1C(=O)O` [Enalapril, reference compound], the “Cardiac output per minute (CO), day 28 vs day 0” value with C57 mouse CHF model was “very significant increase”.
Turning to “(2aR,3R,4S,5aS,5bS,7S,7aR,9R,11aR,12aS)-9-halogen-3-((2R,5S)-5-(2-hydroxypropan-2-yl)-2-methyltetrahydrofuran-2-yl)-2a,5a,8,8-tetramethyltetradecahydro-1H,12H-cyclopenta[a]cyclopropa[e]phenanthrene-4,7-diol [Compound 1]”, in data set [2], the “Metabolic half-life of human liver microsomes” value was found to be 3.893 h. Also, the “metabolic stability in human liver microsomes” value in data set [2] (compared with compound 5 (cycloastragenol)) is “relatively stable; also recorded: more stable than cycloastragenol”. Further, the “metabolic stability in rat liver microsomes” value in data set [3] is recorded as “relatively stable; also recorded: more stable than cycloastragenol”.
